In ChEMBL document CHEMBL1150581, “Batzelline D and isobatzelline E from the indopacific sponge Zyzzya fuliginosa” (J Nat Prod, 2002):
pIC50: −log10 of the molar value. Active and inactive are the calls of the source. The calls are words filed in the database; no cut-off is given here.

How the values were obtained:
[1] = Inhibition of HIV1 env protein assessed as inhibition of env expressing african green monkey BSC1 cell fusion with mouse NIH3T3 cell expressing CXCR4 and Escherichia coli T7 after 2.5 hrs by beta galactosidase report gene assay; details: Human immunodeficiency virus 1, NIH3T3, 2.5 h
NIH3T3 = assay: Inhibition of HIV1 env protein assessed as inhibition of env expressing african green monkey BSC1 cell fusion with mouse NIH3T3 cell expressing CXCR4 and Escherichia coli T7 at 1 ug/ml after 2.5 hrs by beta galactosidase report gene assay; details: Human immunodeficiency virus 1

SMILES | pIC50 [1] | Activity (NIH3T3)
Cn1cc2c3c1C(=O)C(N)=C(Cl)C3=NCC2 [ISOBATZELLINE C] | 6.70 | Active
Cn1cc2c3c1C(=O)C(N)=CC3=NCC2 [MAKALUVAMINE A] | 5.30 | Active
Cn1cc2c3c1C(=O)C(N)=CC3=[N+](C)CC2 [MAKALUVAMINE H] | 5.30 | Active
